We go through 35 molecules from patent publication US6965033B2, “Bisamidate phosphonate prodrugs” (Metabasis Therapeutics, Inc., priority 1999, dated 2005).

Structures can show the parent of a compound that is named as a salt.

Test system in the first series: not given
Assay: not given
Details: not given
In the case of `CCc1cc(OCP(=O)(O)O)c2nc(N)sc2c1F` [Compound 34.5, 2-Amino-6-ethyl-7-fluoro-4-phosphonomethoxybenzothiazole], the melting point – broadly, the temperature, or range, at which the solid turns liquid – is > 250 °C (dec.).

As to `COc1cc(OCP(=O)(O)O)c2nc(N)sc2c1` [Compound 45.1, 2-Amino-6-methoxy-4-phosphonomethoxybenzothiazole], the melting point was > 230 °C (dec.).

Take `CCc1cc(OCP(=O)(O)O)c2nc(N)sc2c1` [Compound 42.1, 2-Amino-6-ethyl-4-phosphonomethoxybenzothiazole]: the melting point is > 220 °C (dec.).

For `CCCOc1c(SC#N)cc(OCP(=O)(O)O)c2nc(N)sc12` [Compound 44.1, 2-Amino-7-propyloxy-6-thiocyano-4-phosphonomethoxy benzothiazole], the melting point was > 220 °C (dec.).

Consider `N#Cc1ccc(OCP(=O)(O)O)c2nc(N)sc12` [Compound 32.3, 2-Amino-7-cyano-4-phosphonomethoxybenzothiazole], for which the melting point is > 250 °C (dec.).

On to `Cc1cc(OCP(=O)(O)O)c2nc(N)sc2c1Cl` [Compound 48.2, 2-Amino-7-chloro-6-methyl-4-phosphonomethoxybenzothiazole], for which the melting point is > 250 °C (dec.).

As for `CCCCCCc1c(C)cc(OCP(=O)(O)O)c2nc(N)sc12` [Compound 40.2, 2-Amino-6-methyl-7-(n-hexyl)-4-phosphonomethoxybenzothiazole], the melting point was > 250 °C (dec.).

As for `Nc1nc2c(OCP(=O)(O)O)cc(C(=O)O)cc2s1` [Compound 29.6, 2-Amino-4-phosphonomethoxy-6-carboxybenzothiazole], the melting point was > 230 °C (dec.).

As for `Cc1c(Cl)cc(OCP(=O)(O)O)c2nc(Cl)sc12` [Compound 37.2, 2-Chloro-4-phosphonomethoxy-6-chloro-7-methyl benzothiazole], the melting point was > 250 °C (dec.).

Take `Cc1cc(OCP(=O)(O)O)c2nc(N)sc2c1Br` [Compound 47.1, 2-Amino-7-bromo-6-methyl-4-phosphonomethoxybenzothiazole]: the melting point was > 250 °C (dec.).

Turning to `Cc1cc(OCP(=O)(O)O)c2nc(N)sc2c1` [Compound 32.2, 2-Amino-6-methyl-4-phosphonomethoxybenzothiazole], the melting point is > 250 °C (dec.).

For `Cc1c(Cl)c(OCP(=O)(O)O)c2nc(N)sc2c1Cl` [Compound 29.5, 2-Amino-5,7-dichloro-6-methyl-4-phosphonomethoxybenzothiazole], the melting point was > 230 °C (dec.).

In the case of `Nc1nc2c(OCP(=O)(O)O)cc(Cl)c(Cl)c2s1` [Compound 31.4, 2-Amino-6,7-dichloro-4-phosphonomethoxybenzothiazole], the melting point was > 250 °C (dec.).

With `CCc1cc(CC)c(-c2ccc(P(=O)(O)O)o2)nc1N` [Compound 15.4, 2-amino-3,5-diethyl-6-[2-(5-phosphono)furanyl]pyridine], the melting point was in the range of 217 to 218 °C.

As for `Nc1nc2c(OCP(=O)(O)O)cc(Cl)cc2s1` [Compound 31.3, 2-Amino-6-chloro-4-phosphonomethoxybenzothiazole], the melting point was > 250 °C (dec.).

For the next series, the target named is T1, rat liver FBPase (Rattus norvegicus, UniProt P19112).
T1 construct: made in house; host or cells: E. coli BL21
T1 sequence (P19112 2-363 limits assumed): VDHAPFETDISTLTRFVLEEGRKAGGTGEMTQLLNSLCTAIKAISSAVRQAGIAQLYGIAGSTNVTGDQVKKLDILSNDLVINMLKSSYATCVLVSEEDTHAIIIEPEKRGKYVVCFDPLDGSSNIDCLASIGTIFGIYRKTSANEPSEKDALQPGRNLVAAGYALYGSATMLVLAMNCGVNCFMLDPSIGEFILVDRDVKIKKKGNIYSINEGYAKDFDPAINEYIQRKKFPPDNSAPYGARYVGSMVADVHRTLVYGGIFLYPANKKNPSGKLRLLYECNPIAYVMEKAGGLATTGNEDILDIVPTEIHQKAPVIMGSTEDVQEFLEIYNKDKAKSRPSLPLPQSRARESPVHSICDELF
The experiment in a line: Inhibition of Rat Liver FBPase. Format: biochemical. The following applies: read-out: IC50 (rlFBPase). On the procedure: E. coli strain BL21 transformed with a human liver FBPase-encoding plasmid was obtained from Dr. M. R. El-Maghrabi at the State University of New York at Stony Brook. The enzyme was typically purified from 10 liters of recombinant E. coli culture as described (M. Gidh-Jain et al., 1994, The Journal of Biological Chemistry 269, pp 27732-27738). Enzymatic activity was measured spectrophotometrically in reactions that coupled the formation of product (fructose 6-phosphate) to the reduction of dimethylthiazoldiphenyltetrazolium bromide (MTT) via NADP^+ and phenazine methosulfate (PMS), using phosphoglucose isomerase and glucose 6-phosphate dehydrogenase as the coupling enzymes. Reaction mixtures (200 μl) were made up in 96-well microtitre plates, and consisted of 50 mM Tris-HCl, pH 7.4, 100 mM KCl, 5 mM EGTA, 2 mM MgCl2, 0.2 mM NADP, 1 mg/ml BSA, 1 mM MTT, 0.6 mM PMS, 1 unit/ml phosphoglucose isomerase, 2 units/ml glucose 6-phosphate dehydrogenase, and 0.150 mM substrate (fructose 1,6-bisphosphate). Inhibitor concentrations were varied from 0.01 μM to 10 μM. Reactions were started by the addition of 0.002 units of pure hlFBPase, and were monitored for 7 minutes at 590 nm in a Molecular Devices Plate Reader (37° C.).
E. coli strain BL21 transformed with a rat liver FBPase-encoding plasmid was obtained from Dr. M. R. El-Maghrabi at the State University of New York at Stony Brook. Recombinant FBPase was purified as described (El-Maghrabi, M. R., and Pilkis, S. J. (1991) BioChem. Biophys. Res. Commun. 176, 137-144) The enzyme assay was identical to that described above for human liver FBPase.
As to `Nc1nc(-c2ccc(P(=O)(O)O)o2)c(-c2cccs2)s1` [Compound 6.3], the IC50 – broadly, the midpoint of a concentration-inhibition curve – turned out to be 500 nM.

Regarding `CCc1c(SC#N)cc(OCP(=O)(O)O)c2nc(N)sc12` [Compound 34.1, 2-amino-7-ethyl-6-thiocyano-4-phosphonomethoxybenzothiazole], the IC50 turned out to be 160 nM.

For `CCCc1ccc(N)nc1-c1ccc(P(=O)(O)O)o1` [Compound 15.14, 6-Amino-3-propyl-2-[2-(5-phosphono)furanyl]pyridine], the IC50 was determined as 680 nM.

For `CCc1cc(F)c(N)c2nc(-c3ccc(P(=O)(O)O)o3)n(CC(C)C)c12` [Compound A, 4-Amino-5-fluoro-7-ethyl-1-isobutyl-2-(2-phosphono-5-furanyl)benzimidazole], the IC50 came to 550 nM.

Take `Nc1ncnc2c1ncn2[C@@H]1O[C@H](COP(=O)(O)O)[C@@H](O)[C@H]1O` [AMP, reference compound]: the IC50 turned out to be 20000 nM.

As to `CC(C)c1sc(N)nc1C(=O)OCP(=O)(O)O` [Compound 18.20, 2-Amino-5-isopropyl-4-phosphonomethoxycarbonylthiazole], the IC50 was determined as 280 nM.

On to `CCc1sc(N)nc1C(=O)OCP(=O)(O)O` [Compound 18.3, 2-amino-5-ethyl-4-phosphonomethoxycarbonylthiazole], for which the IC50 is 490 nM.

For `Nc1ccc(Br)c(-c2ccc(P(=O)(O)O)o2)n1` [Compound 15.2, 6-Amino-3-bromo-2-[2-(5-phosphono)furanyl]pyridine], the IC50 is 1300 nM.

On to `CCOC(=O)c1sc(N)nc1-c1ccc(P(=O)(O)O)o1` [Compound 3.25, 2-Amino-5-ethoxycarbonyl-4-[2-(5-phosphono)furanyl]thiazole], for which the IC50 turned out to be 500 nM.

Take `CC(C)Cc1[se]c(N)nc1-c1ccc(P(=O)(O)O)o1` [Compound 3.70, 2-Amino-5-isobutyl-4-[2-(5-phosphono)furanyl]selenazole]: the IC50 stood at 150 nM.

For `CC(C)Cc1sc(N)nc1-c1ccc(P(=O)(O)O)o1` [Compound 3.1, 2-amino-5-isobutyl-4-[2-(5-phosphono)furanyl]thiazole], the half-inhibitory concentration (IC50) stood at 180 nM.

Turning to `Nc1c(F)ccc2c1nc(-c1ccc(P(=O)(O)O)o1)n2CC1CC1` [Compound B, 4-Amino-5-fluoro-1-cyclopropylmethyl-2-(2-phosphono-5-furanyl)benzimidazole], the IC50 is 2100 nM.

For `CCc1cc(CC)c(-c2ccc(P(=O)(O)O)o2)nc1N` [Compound 15.4, 2-amino-3,5-diethyl-6-[2-(5-phosphono)furanyl]pyridine], the IC50 was determined as 4100 nM.

Regarding `O=P(O)(O)c1ccc(-c2ccccn2)o1` [Compound 15.6, 2-[2-(5-Phosphono)furanyl]pyridine], the IC50 stood at 7000 nM.

For a further series, the target named is T2, human liver FBPase (Homo sapiens, UniProt P09467).
T2 construct: made in house; host or cells: E. coli BL21
T2 sequence (P09467 2-338 limits assumed): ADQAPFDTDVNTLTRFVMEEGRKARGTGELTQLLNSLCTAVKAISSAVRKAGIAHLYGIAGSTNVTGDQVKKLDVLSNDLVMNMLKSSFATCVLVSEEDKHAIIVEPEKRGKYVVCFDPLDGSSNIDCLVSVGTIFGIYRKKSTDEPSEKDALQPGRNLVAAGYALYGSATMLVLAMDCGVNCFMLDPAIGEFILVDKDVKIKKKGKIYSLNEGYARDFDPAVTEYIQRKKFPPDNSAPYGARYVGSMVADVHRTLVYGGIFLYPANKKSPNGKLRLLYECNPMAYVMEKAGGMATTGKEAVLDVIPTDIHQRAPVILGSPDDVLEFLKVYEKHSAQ
The experiment in a line: Inhibition of Human Liver FBPase. Format: biochemical. The following applies: read-out: IC50 (hlFBPase). The protocol: […] […] Enzymatic activity was measured spectrophotometrically in reactions that coupled the formation of product (fructose 6-phosphate) to the reduction of dimethylthiazoldiphenyltetrazolium bromide (MTT) via NADP^+ and phenazine methosulfate (PMS), using phosphoglucose isomerase and glucose 6-phosphate dehydrogenase as the coupling enzymes. […] Inhibitor concentrations were varied from 0.01 μM to 10 μM. Reactions were started by the addition of 0.002 units of pure hlFBPase, and were monitored for 7 minutes at 590 nm in a Molecular Devices Plate Reader (37° C.).
`CSc1nccnc1-c1ccc(P(=O)(O)O)o1` [Compound 17.6, 3-Methylthio-2-[2-(5-phosphono)furanyl]pyrazine]: the IC50 came to 620 nM.

Turning to `CCc1c(SC#N)cc(OCP(=O)(O)O)c2nc(N)sc12` [Compound 34.1, 2-amino-7-ethyl-6-thiocyano-4-phosphonomethoxybenzothiazole], the IC50 stood at 22 nM.

With `CC(C)Cc1cn(C)nc1-c1ccc(P(=O)(O)O)o1` [Compound 19.2, 1-methyl-4-isobutyl-3-[2-(5-phosphono)furanyl]pyrazole], the IC50 is 400 nM.

Regarding `CCCc1ccc(N)nc1-c1ccc(P(=O)(O)O)o1` [Compound 15.14, 6-Amino-3-propyl-2-[2-(5-phosphono)furanyl]pyridine], the IC50 turned out to be 32 nM.

Take `Nc1nc(C(=O)NCP(=O)(O)O)c(Br)s1` [Compound 18.11, 2-Amino-5-bromo-4-[(N-phosphonomethyl)carbamoyl]thiazole]: the IC50 is 330 nM.

As to `Nc1nc(NC(=O)CP(=O)(O)O)ccc1Br` [Compound 18.25, 2-Amino-3-bromo-6-[(N-phosphonoacetyl)amino]pyridine], the IC50 is 2000 nM.

With `CC(C)c1sc(N)nc1C(=O)OCP(=O)(O)O` [Compound 18.20, 2-Amino-5-isopropyl-4-phosphonomethoxycarbonylthiazole], the IC50 amounted to 39 nM.

As for `CCc1sc(N)nc1C(=O)OCP(=O)(O)O` [Compound 18.3, 2-amino-5-ethyl-4-phosphonomethoxycarbonylthiazole], the IC50 was 50 nM.

In the case of `CC(C)Cc1[se]c(N)nc1-c1ccc(P(=O)(O)O)o1` [Compound 3.70, 2-Amino-5-isobutyl-4-[2-(5-phosphono)furanyl]selenazole], the IC50 turned out to be 40 nM.

As for `Nc1nc(-c2cccc(P(=O)(O)O)n2)cs1` [Compound 3.67, 2-Amino-4-[2-(6-phosphono)pyridyl]thiazole hydrobromide], the IC50 is 2000 nM.

As to `CSc1sc(N)nc1CCC(F)(F)P(=O)(O)O` [Compound 22.2, 2-Amino-5-methylthio-4-[1-(3-phosphono-3,3-difluoro)propyl]thiazole], the IC50 was determined as 2800 nM.

In the case of `Nc1nc(-c2ccccc2)nc(-c2ccc(P(=O)(O)O)o2)n1` [Compound 17.11, 2-Amino-4-phenyl-6-[2-(5-phosphono)furanyl]triazine], the IC50 was found to be 780 nM.
